Assay [1] concerns H9 human embryonic stem cells. Description: BrdU incorporation assay in human embryonic stem cells in mTeSR1. The class given is cell-based. The procedure:
For 5-bromo)-2-deoxyuridine (BrdU; BD Pharmingen, San Diego) incorporation assays, human embryonic stem cells were cultured on Matrigel-coated 4-well LabTec chamber slides for 4 days.
Specifically, for BrdU incorporation, cells were incubated in the presence of 30 μM BrdU at 37° C. for 1 hour. After washing with PBS, the cells were fixed with 4% paraformaldehyde for 15 minutes and reacted in 1N HCl at room temperature for 15 minutes. The sample was washed and reacted with 0.1 M sodium tetraborate for 15 minutes. After washing, the cells were reacted with anti-BrdU antibody in 3% BSA-containing PBS for 1 hour, and then reacted with FITC-conjugated secondary antibody for 30 minutes.
In order to verify the effect of nicotinamide on the proliferation of pluripotent stem cells, a BrdU incorporation assay was performed. Nicotinamide was added to mTeSR1 (CDM) at various concentrations, and the effects thereof were examined.
(Incorporation of labelled thymidine or its analogues reports DNA synthesis.)

The test system of assay [2] is promoter regions of Nanog and Oct4. Description: Chromatin immunoprecipitation of histone 3 methylation at Nanog and Oct4 promoters. It is filed as cell-based, human. The procedure:
Formaldehyde was added to a cell culture to fix the cells, and then the chromatin was fragmented to a suitable size by sonication. The chromatin was immunoprecipitated with antibodies to lysine residues 4 and 27 of histone 3, and then the DNA was collected and amplified by real-time polymerase chain reaction using primers for the Oct4 and Nanog promoter regions.

We go through one compound from patent US20150072416A1, “METABOLITE FOR IMPROVING PRODUCTION, MAINTENANCE AND PROLIFERATION OF PLURIPOTENT STEM CELLS, COMPOSITION COMPRISING THE SAME, AND METHOD OF CULTURING PLURIPOTENT STEM CELL USING THE SAME” (KOREA RESEARCH INSTITUTE OF BIOSCIENCE AND BIOTENOLOGY, priority 2012, published 2015).

`NC(=O)c1cccnc1` [nicotinamide]: the “increase in BrdU incorporation” value in assay [1] (0.1 mM in mTeSR1, compared to cells cultured in mTeSR1) was found to be 1.6 times; in assay [1] (1 mM in mTeSR1, compared to cells cultured in mTeSR1), 1.2 times. In assay [2], the “methylation of lysine residue 4 of histone 3 in promoter regions of Nanog and Oct4” value is “increased”. The “methylation of residue 27 of histone 3 in promoter regions of Nanog and Oct4” value in assay [2] is “decreased”.
